Data set [1] is described as follows: Solubility of peptide compounds in buffer formulations (Table 5). It counts as physicochemical. As to conditions: target 1 mg/ml. An outline of the steps:
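Peptide solids, dried from DMSO stock, were taken up at 1 mg/mL in 50 mM HCl pH 1.2, or 50 mM phosphate pH 6.5 or pH 7.4. After 2 h gentle agitation and filtration (0.45 μm), solubility was determined by UHPLC-UV peak area against a DMSO standard of known concentration.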

A short description of data set [2]: Chemical stability (relative purity loss) of peptide compounds in buffer formulations (Table 6). As to conditions: 2° C. and 37° C. The class given is physicochemical. Here is the method: Purity of a peptide batch was determined through UHPLC/MS method A prior to chemical stability measurement.
For stability assessment, the target concentration was 0.5 mg pure compound/ml. Therefore, solutions from solid samples were prepared in a buffer system at a concentration of 0.5 mg/mL compound. The solid samples were obtained by drying down aliquots of a freshly prepared acetonitrile stock solution using a THERMO SPEEDVAC vacuum centrifuge. The dry down time was 3 hours.
The following buffer systems were applied: • Solubility buffer system A): 50 mM HCl pH 1.2+Acetonitrile (3:1). • Solubility buffer system B): 50 mM phosphate buffer pH 6.5+Acetonitrile (3:1). • Solubility buffer system C): 50 mM phosphate buffer pH 7.4+Acetonitrile (3:1). • Prepared solutions were stored for 24 hours at 2° C. and 37° C.
After this time course, the samples were centrifuged for 15 min at 2500 RCF to create a 1:5 dilution of the supernatant. Then 2 μl of the dilution were analyzed with UHPLC-UV applying method A.
The chemical stability was rated through the relative loss of purity calculated by the equation: […]

Data set [3] is described as follows: Protease stability in simulated intestinal fluids (FaSSIF) (Table 7). The class given is in vitro ADME. Conditions: fassif with pancreatin, 37° C.; for remaining at 1 h, 1 µM: 60 min, read-out: Remaining percentage of peptide compound, FaSSIF 60 (min); for remaining at 2 h, 1 µM: 120 min, read-out: Remaining percentage of peptide compound, FaSSIF 120 (min); for remaining at 4 h, 1 µM: 240 min, read-out: Remaining percentage of peptide compound, FaSSIF 240 (min). As for the experimental part: (§1) Studies were carried out in simulated intestinal fluid (SIF) and simulated gastric fluid (SGF) to evaluate gastric stability of the peptide compounds disclosed herein.
Similarly, the term “Pancreatin-SIF” refers to a solution of simulated intestinal fluid containing pancreatin whereas “SIF-media” refers to a solution of simulated intestinal fluid without pancreatin. Pancreatin-SIF was prepared by dissolving 1 mg Pancreatin (MP Biomedicals) in 10 mL SIF media concentrate (PROSENSE).
(§2) Peptide compounds were first dissolved at 1 mM stock concentration in 0.01 HCl (+/−10% of DMSO) and were than diluted further with water to a stock concentration of 20 μM. Final peptide concentration in the incubation was 1 μM.
(§3) To 76 μL of the Pepsin-SGF buffer, 4 μL of the 20 μM peptide stock solution was added and incubated at 37° C. At each timepoint (0, 60, 120 and 240 minutes) the reaction was quenched with addition of 80 μL Ethanol (0.1% HCOOH). The samples were centrifuged for 20 minutes and an aliquot of the supernatant 100 μL were transferred to a LoBind-MTP plate and analyzed by LCMS/MS. The peak area response was calculated at each time point for each test compound. As internal reference, the peak area response of the same test compound at T0 was calculated. The percentage remaining at each timepoint was calculated based on the peak area response ratio of the test compound at T0. Time 0 was set to 100%, and all later timepoints were calculated relative to time 0.

A short description of data set [4]: Protease stability in simulated gastric fluids (FaSSGF) (Table 7). It counts as in vitro ADME. Conditions: fassgf with pepsin, 60 min, 37° C., read-out: Remaining percentage of peptide compound, FaSSGF 60 (min). Here is the method:
as §1
For clarification, the term “Pepsin-SGF” refers to a solution of simulated gastric fluid containing pepsin whereas “SGF media” refers to a solution of simulated gastric fluid without pepsin. Pepsin-SGF was prepared by dissolving 320 mg Pepsin (Merck Millipore) in 100 mL SGF media concentrate (PROSENSE).
as §2
as §3, with “(0,1%” for “(0.1%”
as §3

In data set [5] the test system is IL-23 induced STAT3 signaling (IL-23 receptor) in HEK-Blue IL-23 cells. The experiment in a line: Inhibition of IL-23 induced STAT3 signaling in HEK-Blue IL-23 cells, SEAP reporter (Table 9). It counts as cell-based. Conditions: human IL23 0.25 ng/ml, overnight, read-out: Inhibition of IL-23 induced pSTAT3 (IC50 nM). The method in brief: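 HEK-Blue IL-23 reporter cells (10,000/well) pre-incubated 60 min at 37 °C with serially diluted peptides, then stimulated overnight with human IL-23 at 0.25 ng/ml final. SEAP in supernatant read by QUANTI-Blue, 45 min room temperature, OD 620–655 nm; dose-response curve fitting.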

Setting [6] is: Buffer pH 1.1 (head; method: 50 mM HCl pH 1.2), 2 h agitation, read-out: Solubility, Buffer pH 1.1.
Where [7] appears, read: aqueous buffer, 50 mM phosphate buffer pH 6.5, 2 h agitation, read-out: Solubility, Buffer pH 6.5.
Setting [8] is: aqueous buffer, 50 mM phosphate buffer pH 7.4, 2 h agitation, read-out: Solubility, Buffer pH 7.4.
The mark [9] stands for this setting: 50 mM phosphate buffer pH 6.5 + acetonitrile (3:1), read-out: Chemical stability (relative purity loss), Buffer pH 6.5.
[10] abbreviates: 50 mM phosphate buffer pH 7.4 + acetonitrile (3:1), read-out: Chemical stability (relative purity loss), Buffer pH 7.4.
Where [11] appears, read: 50 mm hcl + acetonitrile, Buffer pH 1.1 (head; method: 50 mM HCl pH 1.2 + acetonitrile 3:1), read-out: Chemical stability (relative purity loss), Buffer pH 1.1.

Converted amounts (≈) assume the structure as drawn. Read-outs that look alike come from different tables or passages of the source. Numbered stars: 1 amine (or outer) side, 2 acyl side, 3 side chain; on linkers, the order of the positions; unused ones are H or OH. Bridge positions count the residues as written; N and C are the ends. Square brackets hold non-standard residues; d marks the D form. Peptide text beside a SMILES is read from it. * marks the point of attachment. Lys(Me,(CH2)4NMe(CH2)5CO) = CN(CCCCCC(=O)[*:3])CCCCN(C)CCCC[C@H](N[*:1])C(=O)[*:2]; Lys(Me,(CH2)4NMe(CH2)4CO) = CN(CCCCC(=O)[*:3])CCCCN(C)CCCC[C@H](N[*:1])C(=O)[*:2]; Trp(7-Me) = Cc1cccc2c(C[C@H](N)C(=O)O)c[nH]c12; Trp(1-Me) = Cn1cc(C[C@H](N)C(=O)O)c2ccccc21; αMeLys(Me2) = CN(C)CCCC[C@](C)(N)C(=O)O; 2Nal = N[C@@H](Cc1ccc2ccccc2c1)C(=O)O; 3Pal = N[C@@H](Cc1cccnc1)C(=O)O; Aun = NCCCCCCCCCCC(=O)O; Thp = NC1(C(=O)O)CCOCC1; Me2NCH2CH2 = CN(C)CC*; Aib = CC(C)(N)C(=O)O; Sar = CNCC(=O)O A value given as a limit tells only on which side of the number the result lay.

On to `CN(C)CCOc1ccc(C[C@@H]2NC(=O)C3(CCOCC3)NC(=O)[C@H](CCC(N)=O)NC(=O)[C@H](Cc3cn(C)c4ccccc34)NC(=O)CCCCN(C)CCCCN(C)CCCC[C@@H](C(=O)NCC(=O)N[C@@H](Cc3cccnc3)C(=O)N(C)CC(N)=O)NC(=O)C(C)(C)NC(=O)[C@H](Cc3ccc4ccccc4c3)NC2=O)cc1` [compound 30] ([Trp(1-Me)]Q[Thp]Y(Me2NCH2CH2)[2Nal][Aib][Lys(Me,(CH2)4NMe(CH2)4CO)]G[3Pal][Sar]-NH2; lactam N-7), for which the solubility at 2 h in data set [1] (setting [6]) is at least 0.94 mg/mL; in data set [1] (setting [7]), at least 0.89 mg/mL; in data set [1] (setting [8]), 0.84 mg/mL (≈ 533 µM). Besides, the degraded at 24 h in data set [2] (setting [9]) worked out at 0%; in data set [2] (setting [10]), 0%; in data set [2] (setting [11]) it was 6.2%. Moreover, the values for the share remaining at 1 h, 1 µM in data set [3] and in data set [4] were 88% and 98%, respectively. In addition, the fraction remaining at 2 h, 1 µM in data set [3] was 87%. In addition, the share remaining at 4 h, 1 µM in data set [3] is 82%. Moreover, in data set [5], the 50% inhibitory concentration (IC50) is 3.86 nM.

For `Cc1cccc2c(C[C@@H]3NC(=O)CCCCN(C)CCCCN(C)CCCC[C@@H](C(=O)NCC(=O)N[C@@H](Cc4cccnc4)C(=O)N(C)CC(N)=O)NC(=O)C(C)(C)NC(=O)[C@H](Cc4ccc5ccccc5c4)NC(=O)[C@H](Cc4ccc(OCCN(C)C)cc4)NC(=O)C4(CCOCC4)NC(=O)[C@H](CCC(N)=O)NC3=O)c[nH]c12` [compound 28] ([Trp(7-Me)]Q[Thp]Y(Me2NCH2CH2)[2Nal][Aib][Lys(Me,(CH2)4NMe(CH2)4CO)]G[3Pal][Sar]-NH2; lactam N-7), the solubility at 2 h in data set [1] (setting [6]) was at least 1.2 mg/mL; in data set [1] (setting [7]) it was at least 1.06 mg/mL; in data set [1] (setting [8]) it was at least 0.99 mg/mL. The degraded at 24 h in data set [2] (setting [9]) stood at 0%; in data set [2] (setting [10]) it was 0%; in data set [2] (setting [11]), 6.7%. The fraction remaining at 1 h, 1 µM is 97% in data set [3] and 101% in data set [4]. The share remaining at 2 h, 1 µM in data set [3] was 98%. Also, in data set [3], the fraction remaining at 4 h, 1 µM is 98%. For the same compound, in data set [5], the IC50 stood at 2.14 nM.

Regarding `Cc1cccc2c(C[C@@H]3NC(=O)CCCCCCCCCCNC(=O)CC[C@@H](C(=O)N[C@@H](CC(N)=O)C(=O)N[C@@H](Cc4cccnc4)C(=O)N(C)CC(N)=O)NC(=O)[C@](C)(CCCCN(C)C)NC(=O)[C@H](Cc4ccc5ccccc5c4)NC(=O)[C@H](Cc4ccc(OCCN(C)C)cc4)NC(=O)C4(CCOCC4)NC(=O)[C@H](CCC(N)=O)NC3=O)c[nH]c12` [compound 20] ([Aun][Trp(7-Me)]Q[Thp]Y(Me2NCH2CH2)[2Nal][αMeLys(Me2)]EN[3Pal][Sar]-NH2; lactam N-8), the solubility at 2 h in data set [1] (setting [6]) was at least 0.85 mg/mL; in data set [1] (setting [7]), under 0.01 mg/mL; in data set [1] (setting [8]), under 0.01 mg/mL. In addition, the degraded at 24 h in data set [2] (setting [9]) is 0%; in data set [2] (setting [10]), 0.1%; in data set [2] (setting [11]) it was 4.9%. For the same compound, the share remaining at 1 h, 1 µM in data set [3] is 96%; in data set [4], 91%. Moreover, the share remaining at 2 h, 1 µM in data set [3] was 96%. Also, in data set [3], the share remaining at 4 h, 1 µM was 97%. Further, the IC50 in data set [5] came out at 0.23 nM.

As for `Cc1cccc2c(C[C@@H]3NC(=O)CCCCCN(C)CCCCN(C)CCCC[C@@H](C(=O)N[C@@H](CC(N)=O)C(=O)N[C@@H](Cc4cccnc4)C(=O)N(C)CC(N)=O)NC(=O)C(C)(C)NC(=O)[C@H](Cc4ccc5ccccc5c4)NC(=O)[C@H](Cc4ccc(OCCN(C)C)cc4)NC(=O)C4(CCOCC4)NC(=O)[C@H](CCC(N)=O)NC3=O)c[nH]c12` [compound 31] ([Trp(7-Me)]Q[Thp]Y(Me2NCH2CH2)[2Nal][Aib][Lys(Me,(CH2)4NMe(CH2)5CO)]N[3Pal][Sar]-NH2; lactam N-7), the solubility at 2 h in data set [1] (setting [6]) is at least 1.02 mg/mL; in data set [1] (setting [7]), at least 1.22 mg/mL; in data set [1] (setting [8]), at least 1.09 mg/mL. The degraded at 24 h in data set [2] (setting [9]) was found to be 0%; in data set [2] (setting [10]) it was 0%; in data set [2] (setting [11]), 6%. For the same compound, the fraction remaining at 1 h, 1 µM in data set [3] was 93%; in data set [4] it was 100%. Also, the amount remaining at 2 h, 1 µM in data set [3] was 91%. Further, the fraction remaining at 4 h, 1 µM in data set [3] is 90%. Moreover, the IC50 in data set [5] came to 0.71 nM.

What is called solubility is how much of the substance goes into solution per volume. As usually defined, the IC50 is the concentration that inhibits the measured activity by half.
